These results are taken from patent US9598412B2, “Spiroindoline compounds for use as anthelminthics” (Intervet, Inc., priority 2010, dated 2017).

Read-outs that look alike come from different tables or passages of the source. Bounds are passed on as bounds.

The test system of this experiment is Haemonchus contortus. The experiment can be described thus: Efficacy against Haemonchus contortus in jirds. The experiment is classed as in vivo. As to conditions: 72 h, jirds (Meriones unguiculatus), necropsy three days after treatment, read-out: reduction of the Haemonchus contortus count (mean larvae count in stomach vs untreated control group). On the procedure: Compounds according to this invention (numbers refer to the compound number in Table 1) were tested in vivo using Haemonchus contortus in jirds (Meriones unguiculatus). The jirds were orally infected with approximately 750-3.000 third-stage larvae of Haemonchus contortus. Ten days after infection, the jirds in the treatment groups were treated once either orally or subcutaneously with compounds at a dose of 10 mg or 50 mg per kg bodyweight. Three days after treatment, the jirds were necropsied, and the larvae burden in the stomach was determined. During the study no side-effects in jirds were observed. The efficacy was defined as the reduction of the mean larvae count in the infected jirds of the treatment group in comparison to the infected jirds in an untreated control group (negative control).

The mark [1] stands for this setting: po, treated once orally at 10 mg/kg ten days after infection.
Setting [2] is: po, treated once orally at 50 mg/kg bw ten days after infection.
Where [3] appears, read: sc, treated once subcutaneously at 50 mg/kg bw ten days after infection.

`O=C(c1ccnc(Cl)c1)N1CC2(CCN(C/C=C/c3ccc(Cl)c(Cl)c3)CC2)c2cc(SC(F)(F)F)ccc21` [Compound 77]: the inhibition in vivo at 10 mg/kg under setting [1] is at least 50%.

For `O=C(c1ccnc(Cl)c1)N1CC2(CCN(C/C=C/c3ccc(F)cc3F)CC2)c2cc(C(F)(F)F)ccc21` [Compound 12], the inhibition in vivo at 50 mg/kg under setting [2] was at least 50%.

For the molecule `O=C(c1ccnc(Cl)c1)N1CC2(CCN(C/C=C/c3ccc(Cl)cc3)CC2)c2cc(C(F)(F)F)ccc21` [Compound 42], the inhibition in vivo at 10 mg/kg under setting [1] is at least 50%.

For `O=C(c1ccnc(Cl)c1)N1CC2(CCN(C/C=C/c3ccc(F)cc3F)CC2)c2c1ccc(Cl)c2Cl` [Compound 20], the inhibition in vivo at 50 mg/kg under setting [3] is at least 50%.

As for `O=C(c1ccnc(Cl)c1)N1CC2(CCN(C/C=C/c3ccc(F)cc3F)CC2)c2c(Cl)cc(Cl)cc21` [Compound 19], the inhibition in vivo at 50 mg/kg under setting [2] was at least 50%.

For `Cc1ccc2c(c1)C1(CCN(C/C=C/c3ccc(Cl)cc3F)CC1)CN2C(=O)c1ccnc(Cl)c1` [Compound 87], the inhibition in vivo at 10 mg/kg under setting [1] is at least 50%.

On to `Cc1ccc2c(c1)C1(CCN(C/C=C/c3ccc(Cl)c(Cl)c3)CC1)CN2C(=O)c1ccnc(Cl)c1` [Compound 71], for which the inhibition in vivo at 10 mg/kg (sc, treated once subcutaneously at 10 mg/kg ten days after infection) was at least 50%.

Consider `O=C(c1ccnc(Cl)c1)N1CC2(CCN(C/C=C/c3cccc(Cl)c3Cl)CC2)c2cc(Cl)ccc21` [Compound 25, [5-chloro-1′-[(E)-3-(2,3-dichlorophenyl)allyl]spiro[indoline-3,4′-piperidine]-1-yl]-(2-chloro-4-pyridyl)methanone], for which the inhibition in vivo at 50 mg/kg under setting [3] is at least 50%.

Consider `O=C(c1ccnc(Cl)c1)N1CC2(CCN(C/C=C/c3ccc(Cl)c(Cl)c3)CC2)c2cc(Cl)ccc21` [Compound 27], for which the inhibition in vivo at 50 mg/kg under setting [3] is at least 50%.
